Species: Rattus norvegicus
Experiment: DrugMatrix - Regimen: Daily Repeat
Assay type: toxicity, organism-based, Sprague-Dawley
Parameters: regimen Daily Repeat, gender Male, age 6-8 weeks
Conditions: in vivo, po, route oral GAVAGE, vehicle .5 % CMC; for BASOPHIL / EOSINOPHIL / ERYTHROCYTE COUNT / HEMATOCRIT / HEMOGLOBIN / LEUKOCYTE COUNT / LYMPHOCYTE / MEAN CORPUSCULAR HEMOGLOBIN / MEAN CORPUSCULAR HEMOGLOBIN CONCENTRATION / MEAN CORPUSCULAR VOLUME / MONOCYTE / NEUTROPHIL / PLATELET COUNT: tissue Blood; for ALANINE AMINOTRANSFERASE / ALBUMIN / ALKALINE PHOSPHATASE / ASPARTATE AMINOTRANSFERASE / BLOOD UREA NITROGEN / CHLORIDE / CHOLESTEROL / CREATINE PHOSPHOKINASE / CREATININE / GLUCOSE / PHOSPHORUS / POTASSIUM / SODIUM / TOTAL BILIRUBIN / TOTAL PROTEIN: tissue Plasma
[1] = 0 mg/kg, 72 h, dose level Control, time 3 day
[2] = 0 mg/kg, 120 h, dose level Control, time 5 day
[3] = 25 mg/kg, 72 h, dose level Low, time 3 day
[4] = 25 mg/kg, 120 h, dose level Low, time 5 day

For `C[C@]12CCC(=O)C=C1CC[C@@H]1[C@@H]2C(=O)C[C@@]2(C)[C@H]1CC[C@]2(O)C(=O)CO` [CORTISONE], the BASOPHIL [1] was 1.52%, the EOSINOPHIL [1] was 0.98% and the “ERYTHROCYTE COUNT” value [1] was 6.96 x10E6/uL. The HEMATOCRIT [1] was 44.65%, the HEMOGLOBIN [1] was 13.62 G/DL and the “LEUKOCYTE COUNT” value [1] was 9.83 x10E3/uL. The LYMPHOCYTE [1] was 76.48%, the “MEAN CORPUSCULAR HEMOGLOBIN” value [1] was 19.57 pg and the “MEAN CORPUSCULAR HEMOGLOBIN CONCENTRATION” value [1] was 30.47 G/DL. The “MEAN CORPUSCULAR VOLUME” value [1] was 64.22 fL, the MONOCYTE [1] was 2.13% and the NEUTROPHIL [1] was 18.6%. For the same molecule, the “PLATELET COUNT” value [1] was 1217.17 x10E3/uL, the “ALANINE AMINOTRANSFERASE” value [1] was 41 u/L and the ALBUMIN [1] was 3.77 G/DL. The “ALKALINE PHOSPHATASE” value [1] was 411.83 u/L, the “ASPARTATE AMINOTRANSFERASE” value [1] was 62.83 u/L and the “BLOOD UREA NITROGEN” value [1] was 15.17 mg/dL. The CHLORIDE [1] was 104.33 MEQ/L, the CHOLESTEROL [1] was 71.17 mg/dL and the “CREATINE PHOSPHOKINASE” value [1] was 123.5 u/L. It also gave a CREATININE [1] of 0.55 mg/dL, a GLUCOSE [1] of 182.67 mg/dL and a PHOSPHORUS [1] of 11.23 mg/dL. For the same molecule, the POTASSIUM [1] was 7.03 MEQ/L, the SODIUM [1] was 148 MEQ/L and the “TOTAL BILIRUBIN” value [1] was 0.57 mg/dL. The “TOTAL PROTEIN” value [1] was 6.85 G/DL, the BASOPHIL [2] was 1.35% and the EOSINOPHIL [2] was 0.43%. For the same molecule, the “ERYTHROCYTE COUNT” value [2] was 6.96 x10E6/uL, the HEMATOCRIT [2] was 44.35% and the HEMOGLOBIN [2] was 13.98 G/DL. The “LEUKOCYTE COUNT” value [2] was 9.45 x10E3/uL, the LYMPHOCYTE [2] was 80.83% and the “MEAN CORPUSCULAR HEMOGLOBIN” value [2] was 20.1 pg. The “MEAN CORPUSCULAR HEMOGLOBIN CONCENTRATION” value [2] was 31.52 G/DL, the “MEAN CORPUSCULAR VOLUME” value [2] was 63.72 fL and the MONOCYTE [2] was 2.37%. For the same molecule, the NEUTROPHIL [2] was 14.05%, the “PLATELET COUNT” value [2] was 1298 x10E3/uL and the “ALANINE AMINOTRANSFERASE” value [2] was 42.17 u/L. For the same molecule, the ALBUMIN [2] was 3.77 G/DL, the “ALKALINE PHOSPHATASE” value [2] was 419 u/L and the “ASPARTATE AMINOTRANSFERASE” value [2] was 66.67 u/L. The “BLOOD UREA NITROGEN” value [2] was 16.67 mg/dL, the CHLORIDE [2] was 103.17 MEQ/L and the CHOLESTEROL [2] was 66.33 mg/dL. The “CREATINE PHOSPHOKINASE” value [2] was 148.33 u/L, the CREATININE [2] was 0.58 mg/dL and the GLUCOSE [2] was 196.83 mg/dL. It also gave a PHOSPHORUS [2] of 11.8 mg/dL, a POTASSIUM [2] of 6.47 MEQ/L and an SODIUM [2] of 148.33 MEQ/L. The “TOTAL BILIRUBIN” value [2] was 0.53 mg/dL, the “TOTAL PROTEIN” value [2] was 6.77 G/DL and the BASOPHIL [3] was 2.4%. The EOSINOPHIL [3] was 0.4%, the “ERYTHROCYTE COUNT” value [3] was 6.64 x10E6/uL and the HEMATOCRIT [3] was 45.5%. For the same molecule, the HEMOGLOBIN [3] was 13.9 G/DL, the “LEUKOCYTE COUNT” value [3] was 7.9 x10E3/uL and the LYMPHOCYTE [3] was 78.6%. The “MEAN CORPUSCULAR HEMOGLOBIN” value [3] was 21 pg, the “MEAN CORPUSCULAR HEMOGLOBIN CONCENTRATION” value [3] was 30.6 G/DL and the “MEAN CORPUSCULAR VOLUME” value [3] was 68.5 fL. For the same molecule, the MONOCYTE [3] was 2.95%, the NEUTROPHIL [3] was 15.4% and the “PLATELET COUNT” value [3] was 1648.5 x10E3/uL. The “ALANINE AMINOTRANSFERASE” value [3] was 43 u/L, the ALBUMIN [3] was 3.8 G/DL and the “ALKALINE PHOSPHATASE” value [3] was 401 u/L. For the same molecule, the “ASPARTATE AMINOTRANSFERASE” value [3] was 68.67 u/L, the “BLOOD UREA NITROGEN” value [3] was 12 mg/dL and the CHLORIDE [3] was 103.67 MEQ/L. The CHOLESTEROL [3] was 62.67 mg/dL, the “CREATINE PHOSPHOKINASE” value [3] was 120.67 u/L and the CREATININE [3] was 0.53 mg/dL. The GLUCOSE [3] was 178.33 mg/dL, the PHOSPHORUS [3] was 12.83 mg/dL and the POTASSIUM [3] was 6.87 MEQ/L. For the same molecule, the SODIUM [3] was 149 MEQ/L, the “TOTAL BILIRUBIN” value [3] was 0.47 mg/dL and the “TOTAL PROTEIN” value [3] was 6.63 G/DL. For the same molecule, the BASOPHIL [4] was 1.53%, the EOSINOPHIL [4] was 0.33% and the “ERYTHROCYTE COUNT” value [4] was 7.03 x10E6/uL. The HEMATOCRIT [4] was 45.13%, the HEMOGLOBIN [4] was 14.27 G/DL and the “LEUKOCYTE COUNT” value [4] was 9 x10E3/uL. For the same molecule, the LYMPHOCYTE [4] was 77.9%, the “MEAN CORPUSCULAR HEMOGLOBIN” value [4] was 20.33 pg and the “MEAN CORPUSCULAR HEMOGLOBIN CONCENTRATION” value [4] was 31.67 G/DL. For the same molecule, the “MEAN CORPUSCULAR VOLUME” value [4] was 64.27 fL, the MONOCYTE [4] was 2.7% and the NEUTROPHIL [4] was 16.73%. The “PLATELET COUNT” value [4] was 1381.67 x10E3/uL, the “ALANINE AMINOTRANSFERASE” value [4] was 45 u/L and the ALBUMIN [4] was 3.7 G/DL. The “ALKALINE PHOSPHATASE” value [4] was 435 u/L, the “ASPARTATE AMINOTRANSFERASE” value [4] was 68.33 u/L and the “BLOOD UREA NITROGEN” value [4] was 15.33 mg/dL. The CHLORIDE [4] was 103 MEQ/L, the CHOLESTEROL [4] was 54 mg/dL and the “CREATINE PHOSPHOKINASE” value [4] was 128.67 u/L. The CREATININE [4] was 0.5 mg/dL, the GLUCOSE [4] was 186 mg/dL and the PHOSPHORUS [4] was 12.57 mg/dL. For the same molecule, the POTASSIUM [4] was 6.6 MEQ/L, the SODIUM [4] was 148 MEQ/L and the “TOTAL BILIRUBIN” value [4] was 0.47 mg/dL. The “TOTAL PROTEIN” value [4] was 6.6 G/DL.
